In PubChem BioAssay AID1159557 (GlaxoSmithKline (GSK), 2015):
Activity calls are given as the source filed them. The rule behind the calls is not given here.

Tested on: Trypanosoma brucei growth inhibition
Test: trypanosome proliferation inhibitors (AID 1159557);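 note: parasites exposed to compound for 48 h before the resazurin readout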

| Structure (SMILES) | IC50 |
| --- | --- |
| CNc1cc(Cn2c(C(=O)c3cc(C)cc(Cl)c3)c(C(C)C)c(=O)[nH]c2=O)ccn1 | 25000 nM |
| COc1ccc2nc(N(Cc3cccnc3)C(=O)C3CCC3)sc2c1 | 20000 nM |
| NS(=O)(=O)c1ccc(CNC(=O)c2ccc([N+](=O)[O-])s2)cc1 | 250 nM |
| CC(C)Oc1cccc(N2CCC(C(=O)N3CCCN(C(C)C)CC3)CC2)c1 | > 40000 nM (inactive) |
| CC(C)Oc1ccc(C(=O)Nc2ccc(N3CCOCC3)c(Cl)c2)cc1 | 13000 nM |
| COc1ccc(-c2ccc3nnc(-c4ccc(O)c(OC)c4)n3c2)cn1 | 2000 nM |
| COc1cc(OC)cc(C(=O)N[C@@H](CC(C)C)C(=O)NC2(C#N)CC2)c1 | 500 nM |
| CCCCn1c(=O)c2c(N)onc2n(CCCC)c1=O | 630 nM |
| C[C@@H](Oc1cc(-n2cnc3ccc(CC(O)CO)cc32)sc1C(N)=O)c1ccccc1Cl (stereo partly drawn) | 630 nM |
| N#Cc1cccc(CN2CCC(c3nc(-c4ccc(C(F)(F)F)nc4)no3)CC2)c1 | > 40000 nM (inactive) |
| Oc1cccnc1-c1n[nH]c(Cc2ccccc2)n1 | 5000 nM |
| COc1cc(C2SCC(=O)Nc3c2c(C)nn3-c2nc3ccccc3s2)cc(OC)c1O (stereo not drawn) | 6300 nM |
| Cc1nn2c(NCCCO)c3c(nc2c1-c1cccs1)CCC3 | 320 nM |
| COc1ccc(C(C)(C)C)cc1S(=O)(=O)n1ccnc1 | 40000 nM |
| CCCN(Cc1ccc(OC)c(OC)c1)Cc1cc(=O)c2c(C)cc(C)cc2[nH]1 | 25000 nM |
| O=C(NCCCn1cnc2ccccc21)c1ccc(NC(=O)c2ccco2)cc1 | 200 nM |
| Cc1cc(C)n(-c2nc(NC(C)C)nc(NC(C)(C)C)n2)n1 | 20000 nM |
| CCOc1ccc2nc(NC(=O)c3ccc([N+](=O)[O-])s3)sc2c1 | 1300 nM |
| Cc1ccc(C)c(CN2C(=O)NC3(CCc4ccccc43)C2=O)c1 (stereo not drawn) | 500 nM |
| COc1cccc(CCNC(=O)C(c2cn[nH]c2)N2CCN(c3ccc(Cl)cc3)CC2)c1 (stereo not drawn) | 20000 nM |
| N#CN1CC[C@@H](NC(=O)Nc2ccccc2Oc2ccccc2)C1 | 1000 nM |
| O=C(C1CCCCC1)N1CCN(c2nnc(-c3ccccc3)c3ccccc23)CC1 | 10000 nM |
| COc1ccc2nccc(NC(=O)C3(OC)CCN(CC(O)c4ccc5c(c4)OCCO5)CC3)c2n1 (stereo not drawn) | 400 nM |
| O=c1[nH]cnc2c([C@@H]3O[C@H](CO)[C@@H](O)[C@H]3O)[nH]nc12 | 3.2 nM |

| Structure (SMILES) | IC50 |
| --- | --- |
| N#Cc1ccc(Br)cc1[N+](=O)[O-] | 160 nM |
| CN(C)c1ncc(-c2cncn2CCOc2ccc(Cl)cc2)cn1 | > 40000 nM (inactive) |
| CNc1cc(C)nc(C2CN(C(=O)c3n[nH]c4ccccc34)CCO2)c1 (stereo not drawn) | 20000 nM |
| CC(C)n1c(-c2nonc2N)nc2cccc(OCCN3CCCC3)c21 | 790 nM |
| O=C(Nc1ccc(C(=O)N2CCCC2c2ccc3c(c2)OCCCO3)cc1)c1ccco1 (stereo not drawn) | 200 nM |
| NC(=O)c1ccsc1NC(=O)c1ccc([N+](=O)[O-])s1 | 200 nM |
| COc1cc(NC(=O)Nc2cccc(CNC(=O)OC3CCCCC3)c2)ccc1-c1cnco1 | 250 nM |
| Cc1ccccc1CNc1cc(C2CC2)nc(-c2nccn2C)n1 | 2500 nM |
| O=C(CN1CCC2(O)CCCCC2C1c1ccc2c(c1)OCO2)Nc1ccc(Cl)cc1Cl (stereo not drawn) | 13000 nM |
| COCCn1c(-c2ccc3c(c2)OCO3)cnc1NCc1ccccc1OC | 20000 nM |
| C=CCOCC1Cn2nc([N+](=O)[O-])nc2O1 (stereo not drawn) | > 40000 nM (inactive) |
| COc1ccc(-c2nc3ccncc3c(=O)n2CCOc2ccccc2)cc1 | 25000 nM |
| O=C(Nc1cccc(Cl)c1)N1CCCCC1c1cccnc1 (stereo not drawn) | > 40000 nM (inactive) |
| COc1ccccc1-n1c(SCC(=O)Nc2ccc3c(c2)OCO3)nc2c(c1=O)SCC2 | > 40000 nM (inactive) |
| O=C(Nc1nc(-c2ccccn2)cs1)c1ccc(S(=O)(=O)N2CCCCC2)cc1 | 400 nM |
| N#Cc1ccc(S(=O)(=O)N2CCC3(CCN(c4ccccc4)C3=O)CC2)cc1 | > 40000 nM (inactive) |
| CC(C)C[C@H](NC(=O)c1csc(-c2cccs2)n1)C(=O)NC1(C#N)CC1 | 160 nM |
| O=C(Nc1nc2cc(Cl)ccc2o1)c1cccc(Cl)c1 | 790 nM |
| N#Cc1cc(N2CCCC2=O)ccc1Sc1ccccc1CO | 40000 nM |
| N#Cc1cccc(CN2CCC(N(Cc3cccnc3)C(=O)c3cc(F)c(F)cc3F)CC2)c1 | > 40000 nM (inactive) |
| Cc1[nH]nc(Nc2ccnc3[nH]ccc23)c1C | 130 nM |
| CCC(CC)C(=O)Nc1ccc(-c2nnc(-c3ccc(OC)cc3)o2)cc1 | 500 nM |
| COc1ccc(-c2cnc(NC(=O)c3cc(-c4ccccn4)n[nH]3)n2C)cc1 | 400 nM |
| CCC(=O)Nc1ccc(C(=O)Nc2ccccc2-c2ccccc2)cc1 | 20000 nM |

Other lines, results leading:

| IC50 | Structure (SMILES) |
| --- | --- |
| 100 nM | COc1ccc(Nc2nc(NC3CCC(O)CC3)ncc2Br)c(C(N)=O)c1 (stereo not drawn) |
| 320 nM | Cc1cc(NC(=O)c2ccc([N+](=O)[O-])s2)ccc1Br |
| > 40000 nM (inactive) | CC(Cn1ccnc1)NC(=O)C1CC1c1cccc(Cl)c1Cl (stereo not drawn) |
| 25000 nM | O=S(=O)(NCC(c1cccnc1)N1CCN(c2ccccc2F)CC1)c1ccc(F)cc1 (stereo not drawn) |
| > 40000 nM (inactive) | Cc1[nH]c2ccccc2c(=O)c1Cc1c(C)[nH]c2ccccc2c1=O |
| 130 nM | NC(=O)c1ncc(N[C@@H]2CCCNC2)nc1Nc1cccc(Cl)c1 |
| 63 nM | CNS(=O)(=O)c1ccccc1Nc1nc(Nc2ccnn2C)ncc1Cl |
| 13000 nM | O=C(Cn1cnc2cc([N+](=O)[O-])ccc2c1=O)NCCc1ccc(Cl)cc1Cl |
| 400 nM | CS(=O)(=O)c1ccccc1C(=O)N(Cc1ccccc1)c1ccccc1 |
| 500 nM | CN(C)S(=O)(=O)c1cccc(C(=O)Nc2nc(-c3ccccn3)cs2)c1 |
| 4 nM | O=C1OCc2ccc(Nc3nccc(-c4cnn5ncccc45)n3)cc21 |
| > 40000 nM (inactive) | N#Cc1ccccc1S(=O)(=O)N1CCN(C(=O)CNC(=O)c2ccc3c(c2)OCO3)CC1 |
| 25000 nM | COc1ccc(C)cc1-c1csc(NC(=O)C(C)n2ccnc2)n1 (stereo not drawn) |
| 2500 nM | N#Cc1cc([N+](=O)[O-])ccc1NC1CCCCCC1 |
| 7.9 nM | N#Cc1c(Oc2cccc(Cl)c2)cccc1[N+](=O)[O-] |
| 20000 nM | CN(C)CCOc1ccc(N2CCN(S(=O)(=O)c3ccc(Cl)cc3)CC2)cc1 |
| 32000 nM | Cc1cc(-c2cccc3ccccc23)nc2nc(N)nc(N)c12 |
| > 40000 nM (inactive) | CN(Cc1nnnn1C1CCN(Cc2ccc(-n3ccnc3)cc2)CC1)c1ccc(F)cc1F |
| 2500 nM | Nc1nc(-c2ccccn2)nc(N)c1Cc1c(F)cccc1Cl |
| 320 nM | CC(=O)Nc1ccc(CN2CCC(N3CC(c4ccccc4)(c4ccccc4)OCC3=O)CC2)cc1 |

| IC50 | Structure (SMILES) |
| --- | --- |
| 250 nM | O=C(NCCc1ccn(-c2ccccc2)n1)C1CCCCC1 |
| 400 nM | O=C(NCCc1csc(-c2ccc(F)cc2)n1)c1ccco1 |
| 25000 nM | COc1cc2c(cc1OC)[C@H]1[C@@H](C)c3ccc(OC)c(OC)c3CN1CC2 |
| 7900 nM | COc1ccc(CNc2nsc3ccccc23)cc1OC |
| 5000 nM | CCS(=O)(=O)Nc1ccc(C2=NN(C(=O)c3cccs3)C(c3ccccc3OC)C2)cc1 (stereo not drawn) |
| 6300 nM | O=C(CN(Cc1ccccn1)Cc1ccccn1)NCc1ccc2c(c1)OCO2 |
| 320 nM | COc1cccc(NS(=O)(=O)c2ccc3[nH]cc(C(=O)NCCC(C)C)c(=O)c3c2)c1 |
| 250 nM | Cc1ccccc1NS(=O)(=O)c1ccc2[nH]cc(C(=O)NC3CCCCC3)c(=O)c2c1 |
| 500 nM | COc1cc(Nc2nccc(Nc3onc(C)c3C)n2)cc(S(=O)(=O)C2CCOCC2)c1 |
| 630 nM | COc1cc(-c2noc(CC#N)n2)ccc1OC(F)F |
| 32000 nM | COc1cccc(-c2cc(C(F)(F)F)nc(-n3ccc([N+](=O)[O-])n3)n2)c1 |
| 3200 nM | CC1=C(C(=O)Nc2ccc(Cl)cc2)C(c2ccncc2)n2ncc(C(=O)Nc3ccccc3)c2N1 (stereo not drawn) |
| 1600 nM | O=C(Nc1ccc(Br)cn1)c1ccc(Cn2cnc([N+](=O)[O-])n2)cc1 |
| > 40000 nM (inactive) | COc1ccc(OC)c2c(=O)c(Cc3ccccc3)c(C)[nH]c12 |
| 500 nM | CCc1cccc(CC)c1-n1c(SCC(=O)N2CC(=O)Nc3ccccc32)nnc1-c1cccnc1 |
| 3200 nM | CCCc1cc(N)nc(-c2cc(CCC)cc(N)n2)c1 |
| 1000 nM | Nc1nc(-c2ccccn2)nc(-n2nc(-c3ccccc3)cc2N)n1 |
| 6300 nM | COc1ccc(-c2cnc(C)o2)cc1S(=O)(=O)Nc1ccc(C)cc1C |
| 25000 nM | Cc1cc2cc(CNc3ccc4c(c3)OCO4)c(=O)n(CCO)c2cc1C |
| 320 nM | COc1ccc2ncc(Cl)c(CCN3CC[C@H](NCc4cc5c(cn4)OCS5)[C@@H](O)C3)c2n1 |

| IC50 | Structure (SMILES) |
| --- | --- |
| 32000 nM | CNc1c(C(N)=O)c(-c2ccc3scnc3c2)nn1CC(F)(F)F |
| 10000 nM | CCCCNc1nccc(-c2c(-c3ccc(F)cc3)nn3c(N4CCOCC4)cccc23)n1 |
| 63 nM | O=C1NCc2cccc(Nc3nc(NC4CCC(O)CC4)ncc3Br)c21 (stereo not drawn) |
| > 40000 nM (inactive) | CCN(C)Cc1ccc(N2CCC(NS(=O)(=O)c3ccc4c(c3)CCO4)CC2)nc1 |
| 200 nM | NS(=O)(=O)c1ccc(Nc2ncc3cccc(OC4CCNCC4)c3n2)cc1 |
| 79 nM | Cc1cc2nc(N3CC[C@H]3C(N)=O)nc(Nc3cc(C4CC4)[nH]n3)c2s1 |
| 6300 nM | CC(C)(C)Nc1nc(-c2ccccn2)nc2ccccc12 |
| 32000 nM | O=C(NCCc1ccccc1Cl)c1cccn1-c1cccnc1 |
| > 40000 nM (inactive) | Cc1ccc(C)c(OC2CCN(C(=O)C(C)n3ccnc3)CC2)c1 (stereo not drawn) |
| 32000 nM | Cc1ccc(S(=O)(=O)Cn2nnnc2C(c2cccnc2)N2CCN(c3ccccc3)CC2)cc1 (stereo not drawn) |
| 7900 nM | COc1cc(OC)cc(C(NS(=O)(=O)c2ccc(Cl)c(C(F)(F)F)c2)c2nccn2C)c1 (stereo not drawn) |
| > 40000 nM (inactive) | Cc1ccccc1OCC(=O)N1CCCN(c2cccnn2)CC1 |
| 2500 nM | CCCc1cc(C(=O)Nc2ncc(-c3cccc(Br)c3)n2C)n[nH]1 |
| 20000 nM | C=CCN(Cc1cccs1)C(=O)CSc1nnc(-c2ccc3c(c2)OCO3)o1 |
| 16000 nM | COc1ccc(Cl)cc1CC(=O)Nc1n[nH]c(-c2ccccn2)n1 |
| 2000 nM | OC1CCC(Nc2nccc(-c3sc(C4CCOCC4)nc3-c3ccc(F)c(F)c3)n2)CC1 (stereo not drawn) |
| 250 nM | O=C(NC(CO)c1ccc(F)cc1)c1ccc(-c2c[nH]c3ncccc23)s1 (stereo not drawn) |
| 790 nM | CN(Cc1nc2ccc(C(=O)NCC3CCCCC3)cc2[nH]1)C1CCCc2cccnc21 (stereo not drawn) |
| 20000 nM | Cc1c(C(=O)NCCCCn2ccnc2)oc2c(C)cccc12 |
| 160 nM | Cc1ccc(S(=O)(=O)Nc2ccc(CN3CCN(C(=O)c4cccc(C#N)c4)CC3)cc2)cc1 |
